Among the data in the CATMoS acute toxicity set (Mansouri et al. 2021) are GHS category values, retold here.

The data set is described as follows: GHS categories as the set defines them, by LD50: 1 up to 5, 2 up to 50, 3 up to 300, 4 up to 2000, 5 above 2000 mg/kg. The settings on record: rat; in vivo; po.

`C=C(C)C(=O)OCCOC(=O)Oc1ccc(C(C)(C)c2ccc(OC(=O)OCCOC(=O)C(=C)C)cc2)cc1`: the GHS category worked out at 5.

As to `CCN(CC)CCN(CCN(CC)CC)n1cc(-c2ccc(Cl)cc2)c2cc(C)ccc21`, the GHS category turned out to be 4.

As for `O=C(O)NN1C(CCCOc2ccc(F)cc2)C[C@H](O)[C@@H]2CCCC[C@H]21` (some centres not stated), the GHS category was 5.

As for `Cc1c(Cc2ccc(-c3ccccc3-c3nn[nH]n3)cc2)c(=O)nc2nc[nH]n12`, the GHS category is 4.

Consider `CCCCC(C)OP(=S)(OC)OC` (configuration not stated), for which the GHS category stood at 4.

`C[C@]12CCC(=O)C[C@@H]1CC[C@@H]1[C@@H]2CC[C@@]2(C)[C@H]1CC[C@]2(C)O` displayed a GHS category of 5.

Consider `COC(=O)c1ccc(N2CCC(c3ccc(Cl)cc3)=N2)cc1`, for which the GHS category turned out to be 5.

`FC(F)(F)N1C(F)(F)C(F)(F)OC(F)(F)C1(F)F`: the GHS category is 5.

With `CN1C(=O)CCc2c(OCC(O)CN3CCC(Cc4ccccc4)CC3)cccc21` (configuration not stated), the GHS category is recorded as 4.

Take `C/C=C(\C)C(=O)OCCc1ccccc1`: the GHS category came out at 5.

Regarding `O=C1Cc2cccc(F)c2N1`, the GHS category was 4.

`CC(=O)c1ccc2c(c1)OC(C)C(=O)N2C` (configuration not stated) came in with a GHS category of 5.

With `NP(N)(=O)Nc1ccccc1[N+](=O)[O-]`, the GHS category turned out to be 5.

Molecule `COc1cc2nc(N3CCCC(N(C)Cc4ccc5c(c4)OCO5)C3)nc(N)c2cc1OC` (configuration not stated) yielded a GHS category of 4.

The molecule `CNc1nc(Nc2ccc(C=Cc3ccc(Nc4nc(NC)nc(N(CCO)CCO)n4)cc3S(=O)(=O)O)c(S(=O)(=O)O)c2)nc(N(CCO)CCO)n1` yielded a GHS category of 5.

With `O=C(NC(CCc1ccc2c(c1)OCO2)CCc1ccc2c(c1)OCO2)c1cc2ccccc2o1`, the GHS category stood at 5.

The molecule `Cc1cc2cc3c(C)cc(=O)oc3c(C)c2o1` came in with a GHS category of 5.

`CCCCCCCC(=O)O[C@H]1CO[C@H]2[C@@H]1OC[C@H]2OC(=O)CCCCCCC`: the GHS category worked out at 5.

Turning to `CCCC1OC(Cn2cncn2)(c2cc3ccccc3o2)OCC1(C)C` (configuration not stated), the GHS category amounted to 4.

In turn, `CCCC(=O)CC(=O)OCC` displayed a GHS category of 4.

As to `CCO[Si](C)(CCCN)OCC`, the GHS category is reported as 5.

`O=S(=O)(O)c1cc(-n2nc3ccc4ccccc4c3n2)ccc1C=Cc1ccccc1` displayed a GHS category of 5.

In the case of `CN(CCO)S(=O)(=O)C(F)(F)C(F)(F)C(F)(F)C(F)(F)F`, the GHS category is 5.

The molecule `NCC[C@H](O)C(=O)N[C@@H]1C[C@H](N)[C@@H](O[C@H]2O[C@H](CN)CC[C@H]2N)[C@H](O)[C@H]1O[C@H]1O[C@H](CO)[C@@H](O)[C@H](N)[C@H]1O` showed a GHS category of 5.

Turning to `CCOP(=S)(OCC)SSSP(=S)(OCC)OCC`, the GHS category came to 5.

Regarding `C=CCCCC(C)C`, the GHS category is 5.

In turn, `CCCCCCC(=O)OC` had a GHS category of 5.

In the case of `CC(C)=CCC(C#N)(CCN(C)C)Cc1cccc2ccccc12` (configuration not stated), the GHS category is given as 4.

The molecule `CC(C)Oc1ccc2c(=O)c(-c3ccccc3)coc2c1` yielded a GHS category of 5.

`CON=CC1=CCCN(C(=O)Oc2ccc(C(C)C)cc2)C1` returned a GHS category of 4.

`CCOC(=O)C(=O)Nc1cc(OCCOC)nc(C)n1`: the GHS category is 4.

Take `CO/N=C(/C1=NOCCO1)c1ccccc1Oc1ncnc(Oc2ccccc2Cl)c1F`: the GHS category is given as 5.

The molecule `CCSCCCSc1nnnn1C` gave a GHS category of 4.

`C[N+](C)(C)CC(O)CC(=O)[O-]` (configuration not stated): the GHS category worked out at 5.

With `CCCCCCCCCCCCCCCC(=O)OC[C@@H](O)[C@H]1OC[C@H](O)[C@H]1O`, the GHS category was determined as 5.

`C[N+]1(CC(O)COc2cccc3c2CCC(=O)N3)CCC(c2ccccc2)CC1` (configuration not stated): the GHS category is 4.

In turn, `CCCCCCCCCCCC(=O)OCC(C)(C)C=NCC1(C)CC(N=CC(C)(C)COC(=O)CCCCCCCCCCC)CC(C)(C)C1` (configuration not stated) came in with a GHS category of 5.

For the molecule `CCOC(=O)C(C)(C)NC(=O)c1cnc2cccc(C)n2c1=O`, the GHS category is on record as 3.

`O=C1CCCCCN1SSN1CCCCCC1=O` gave a GHS category of 5.

`CC1CCCO1` (configuration not stated) registered a GHS category of 4.

Turning to `CN(C)C(=O)OC1N=C(c2ccccc2)c2cc(Cl)ccc2N(C)C1=O` (configuration not stated), the GHS category is on record as 5.

Take `CCC(CC)Nc1nnc(-c2ccccc2)c2ccccc12`: the GHS category came to 5.

Molecule `COC(=O)c1ccc(OC)cc1` gave a GHS category of 5.

In the case of `CC(C)(c1ccc(OP(=O)(Oc2ccccc2)Oc2ccccc2)cc1)c1ccc(OP(=O)(Oc2ccccc2)Oc2ccccc2)cc1`, the GHS category is on record as 5.

In the case of `OC[C@H]1NC[C@H](O)[C@@H](O)[C@@H]1O`, the GHS category was 5.

In turn, `C=CCSc1nc2ccc(Cc3ccccc3)cc2[nH]1` yielded a GHS category of 5.

On to `CCCCCCCCCCCCCCCCCCCCO`, for which the GHS category stood at 5.

With `CCOC(=O)CCn1c(=N)oc2ccccc21`, the GHS category is 4.

Molecule `CC1CC(C)(C)OC(Cn2cncn2)(c2cc3ccccc3o2)O1` (configuration not stated) yielded a GHS category of 4.

The molecule `Nc1nc(N)nc(NC(=O)NC(=O)c2ccc(Cl)cc2)n1` returned a GHS category of 5.

`CCO[Si](C)(OCC)OCC` displayed a GHS category of 5.

`O=C1OC(=O)c2c(Br)c(Br)c(Br)c(Br)c21` gave a GHS category of 5.

`CCCc1c(Cc2ccc(-c3ccccc3-c3nn[nH]n3)cc2)c(=S)nc2nc[nH]n12` displayed a GHS category of 4.

`COc1ccc(-c2nc(C)c(C(N)=O)s2)cc1`: the GHS category was determined as 5.

`CCCCCCCCCCCCCCCCCCCCCC(=O)O` gave a GHS category of 5.

Molecule `CC12CCC(=O)C=C1CCC1C3CCC4(CCC(=O)O4)C3CCC12C` (configuration not stated) yielded a GHS category of 5.

For `COc1ccc2[nH]c(C)c(CC(=O)OCC(=O)O)c2c1`, the GHS category was found to be 5.

For `CCOC(=O)c1c(CSc2ccccc2)n(C)c2cc(Br)c(O)c(CN(C)C)c12`, the GHS category is on record as 5.

Regarding `CO[C@H]1C=CO[C@@]2(C)Oc3c(C)c(O)c4c(c3C2=O)C2=NC3(CCN(CC(C)C)CC3)NC2=C(NC(=O)C(C)=CC=C[C@H](C)[C@H](O)[C@@H](C)[C@@H](O)[C@@H](C)[C@H](OC(C)=O)[C@@H]1C)C4=O`, the GHS category is 5.

`CCOCC1COC(Cn2cncn2)(c2cc3ccccc3o2)O1` (configuration not stated) returned a GHS category of 4.

Molecule `CCCc1nc(C)c2c(=O)nc(-c3cc(S(=O)(=O)O)ccc3OCC)[nH]n12` showed a GHS category of 5.

`CC(c1ccccc1)c1ccc(Nc2ccc(C(C)c3ccccc3)cc2)cc1` (configuration not stated) showed a GHS category of 5.

In the case of `CNc1ccc(C(=O)c2cccs2)cc1O`, the GHS category is 5.

As to `CCN(CC)CCNC(C(=O)OCCC(C)C)c1ccccc1` (configuration not stated), the GHS category was found to be 4.

Take `CCCCl`: the GHS category was 5.

In turn, `C[C@]12CC[C@H](O)CC1=CC[C@@H]1[C@@H]2CC[C@]2(C)C(=O)CC[C@@H]12` gave a GHS category of 5.

As for `CCNC(=O)NCc1cccc(Cl)c1`, the GHS category came out at 5.

Consider `O=C1NC(=O)C(c2ccccc2)(c2ccccc2O)N1` (configuration not stated), for which the GHS category is reported as 5.

Take `O=C(CCCN1CCC2(CC1)C(=O)NCN2c1ccccc1)c1ccc(F)cc1`: the GHS category was 4.

Molecule `Cc1cc(NC(=O)C2=C(O)c3ccccc3S(=O)(=O)N2C)no1` gave a GHS category of 5.

Molecule `C=C(C)C(=O)OCCOC(=O)CC(C)=O` showed a GHS category of 5.

On to `CC1COC(Cn2cncn2)(c2cc3cc(Cl)cc(Cl)c3o2)O1` (configuration not stated), for which the GHS category is listed as 4.

Turning to `NS(=O)(=O)c1cc(C2(O)NC(=O)c3ccccc32)ccc1Cl` (configuration not stated), the GHS category turned out to be 5.

For `CO[Si](CC(C)C)(OC)OC`, the GHS category is given as 5.

In turn, `NCCCC[C@H](N[C@@H](CCc1ccccc1)C(=O)O)C(=O)N1CCC[C@H]1C(=O)O` returned a GHS category of 5.

Take `O=C(c1ccccc1)c1ccc2[nH]c(=O)oc2c1`: the GHS category was 5.

`O=C(Nc1ccc(Cc2ccc(NC(=O)NC3CCCCC3)cc2)cc1)NC1CCCCC1` registered a GHS category of 5.

In turn, `CC(=O)C(N=Nc1ccc(C(=O)Nc2ccc(C(N)=O)cc2)cc1)C(=O)Nc1ccc2[nH]c(=O)[nH]c2c1` (configuration not stated) yielded a GHS category of 5.

As for `O=C(NC(=O)C(Cl)(Cl)Cl)NS(=O)(=O)c1ccccc1`, the GHS category is given as 5.

`CC1(C)O[C@@H]2C[C@H]3[C@@H]4C[C@H](F)C5=CC(=O)C=C[C@]5(C)[C@@]4(F)[C@@H](O)C[C@]3(C)[C@]2(C(=O)CO)O1` gave a GHS category of 5.

As to `O=C(OOC(=O)c1ccc(Cl)cc1Cl)c1ccc(Cl)cc1Cl`, the GHS category was 5.

With `Cc1ccc(C(=O)OCCCl)cc1N=Nc1c(O)c(C(=O)Nc2cc(C)c(NC(=O)c3cc4ccccc4c(N=Nc4cc(C(=O)OCCCl)ccc4C)c3O)cc2C)cc2ccccc12`, the GHS category is 5.

`CCCNC(=O)c1cnc2ccccn2c1=O` registered a GHS category of 3.

Molecule `CC1CN(S(=O)(=O)c2cccc3cnccc23)CCN1` (configuration not stated) came in with a GHS category of 4.

Molecule `CC(=O)CC(=O)OCCOC(=O)CC(C)=O` returned a GHS category of 5.

As to `Nc1c(I)c(C(=O)Cl)c(I)c(C(=O)Cl)c1I`, the GHS category worked out at 5.

As to `CC(C)OC(=O)CCC/C=C\C[C@@H]1[C@@H](CC[C@@H](O)CCc2ccccc2)[C@H](O)C[C@@H]1O`, the GHS category is 1.

As to `COC[C@H]1CO[C@@](Cn2cncn2)(c2cc3ccccc3o2)O1`, the GHS category was 4.

Turning to `CCCCC(CC)COCC(O)COc1ccc(-c2nc(-c3ccc(C)cc3C)nc(-c3ccc(C)cc3C)n2)c(O)c1` (configuration not stated), the GHS category turned out to be 5.

Turning to `Nc1nc(/C(=C/CC(=O)O)C(=O)N[C@@H]2C(=O)N3C(C(=O)O)=CCS[C@H]23)cs1`, the GHS category was determined as 5.

On to `C=CCCCCCCCCOC(C)=O`, for which the GHS category worked out at 5.

On to `Oc1ccc(OCc2ccccc2)cc1`, for which the GHS category is listed as 5.

`CCCCCNC(=O)c1ccccc1` displayed a GHS category of 5.

`CC(=O)Oc1c(I)cc(I)cc1C(=O)Nc1ccc(Cl)cc1` had a GHS category of 5.

Consider `CN1C2=CC(=O)C(=NNC(N)=O)C=C2CC1S(=O)(=O)O` (configuration not stated), for which the GHS category is 5.

`CC1CC(OC(=O)c2ccccc2O)CC(C)(C)C1` (configuration not stated) returned a GHS category of 5.

Molecule `O=C1C=CC(=O)N1c1ccc(SSc2ccc(N3C(=O)C=CC3=O)cc2)cc1` had a GHS category of 5.
